Measurements taken from ChEMBL document CHEMBL1157139, “A structural analysis of the differential cytotoxicity of chemicals in the NCI-60 cancer cell lines” (2008).

Legend:
Assay type in all cases: functional
NCI-H23 = test: Cytotoxicity against human NCI-H23 cells; settings: for CC50: read-out: pLC50 (the source's name) (converted); for TGI: read-out: pTGI (converted)
A549 = test: Cytotoxicity against human A549 cells; settings: for GI50: A549; for CC50: A549, read-out: pLC50 (converted); for TGI: A549, read-out: pTGI (converted)
NCI-H522 = test: Cytotoxicity against human NCI-H522 cells; settings: for TGI: read-out: pTGI (converted)

| SMILES | GI50 (NCI-H23) [µM] | CC50 (NCI-H23) [µM] | TGI (NCI-H23) [µM] | GI50 (A549) [µM] | CC50 (A549) [µM] | TGI (A549) [µM] | GI50 (NCI-H522) [µM] | TGI (NCI-H522) [µM] |
| --- | --- | --- | --- | --- | --- | --- | --- | --- |
| C[C@@H]1C[C@@H]([C@H](O)CC2CC(=O)NC(=O)C2)C(=O)[C@@H](C)C1 [CYCLOHEXIMIDE] | > 100 | > 100 | > 100 | > 100 | > 100 | > 100 | > 100 | > 100 |
| O=C(O)c1ccccn1 [2-PICOLINIC ACID] | 61.8 | 88.5 | 74 | 65.2 | > 100 | 82 | 0.693 | 1.05 |
